The target in the experiment is T1, ALK (baculovirus expressed human ALK kinase domain F1098-K1410) (Homo sapiens, UniProt Q9UM73).
T1 construct: human ALK kinase domain F1098-K1410; made in house
Description: biochemical. An outline of the steps:
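Baculovirus-expressed human ALK kinase domain (F1098-K1410) was run in a luciferase-coupled chemiluminescent format, with ATP near its KM. After 2 h at ambient temperature, remaining ATP was read by luciferase-luciferin luminescence. IC50 came from 10-point dose-response curves fitted to a four-parameter equation with Hill slope.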

Where [1] appears, read: 1 μM ATP, 4 μM poly-AEKY, 12 nM ALK, 2 hours at ambient temperature, read-out: ALK IC50.

Our source for the IC50 values is patent US7973061B2, “Anaplastic lymphoma kinase modulators and methods of use” (Exelixis, Inc., priority 2004, dated 2011).

Where two headings read alike, the source gives them in different places.

One may read the IC50 as the concentration that inhibits the measured activity by half.

T1 sequence (Q9UM73 1098-1410): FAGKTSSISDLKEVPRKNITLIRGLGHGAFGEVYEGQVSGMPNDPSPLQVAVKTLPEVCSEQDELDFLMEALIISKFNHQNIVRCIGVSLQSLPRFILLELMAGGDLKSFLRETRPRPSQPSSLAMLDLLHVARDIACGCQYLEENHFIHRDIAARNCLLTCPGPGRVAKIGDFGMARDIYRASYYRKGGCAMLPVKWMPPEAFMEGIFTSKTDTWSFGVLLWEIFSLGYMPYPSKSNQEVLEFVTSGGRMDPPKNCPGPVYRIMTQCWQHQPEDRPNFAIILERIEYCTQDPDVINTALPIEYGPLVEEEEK

Take `O=C(COc1ccc(OC(F)(F)F)cc1)NCc1nc(C(=O)NCCc2ccccc2Cl)cs1` [Entry 104, N-[2-(2-chlorophenyl)ethyl]-2-({[({4-[(trifluoromethyl)oxy]phenyl}oxy)acetyl]amino}methyl)-1,3-thiazole-4-carboxamide]: the IC50 under setting [1] was in the range of 50 to 500 nM. Still for that read-out and setting: the same measure for `O=C(COc1ccc(OC(F)(F)F)cc1)NCc1nc(C(=O)N[C@@H]2C[C@H]3CC[C@@H]2C3)cs1` [Entry 105, N-[(1R,2R,4S)-bicyclo[2.2.1]hept-2-yl]-2-({[({4-[(trifluoromethyl)oxy]phenyl}oxy)acetyl]amino}methyl)-1,3-thiazole-4-carboxamide]: 50 to 500 nM; for `COc1cccc(OC)c1CNC(=O)c1csc(CNC(=O)COc2ccc(OC(F)(F)F)cc2)n1` [Entry 106, N-{[2,6-bis(methyloxy)phenyl]methyl}-2-({[({4-[(trifluoromethyl)oxy]phenyl}oxy)acetyl]amino}methyl)-1,3-thiazole-4-carboxamide]: 50 to 500 nM; for `CN(CCCNC(=O)c1csc(CNC(=O)COc2ccc(OC(F)(F)F)cc2)n1)c1ccccc1` [Entry 107, N-{3-[methyl(phenyl)amino]propyl}-2-({[({4-[(trifluoromethyl)oxy]phenyl}oxy)acetyl]amino}methyl)-1,3-thiazole-4-carboxamide]: 50 to 500 nM. As for `CC(NC(=O)c1csc(CNC(=O)COc2ccc(OC(F)(F)F)cc2)n1)c1ccccc1` (stereo not shown) [Entry 108, N-(1-phenylethyl)-2-({[({4-[(trifluoromethyl)oxy]phenyl}oxy)acetyl]amino}methyl)-1,3-thiazole-4-carboxamide], the IC50 under setting [1] lay in the range of 50 to 500 nM. Same read-out and setting: the same measure for `O=C(COc1ccc(Br)cc1)NCc1nc(C(=O)NCCc2cccc(Cl)c2)cs1` [Entry 109, 2-[({[(4-bromophenyl)oxy]acetyl}amino)methyl]-N-[2-(3-chlorophenyl)ethyl]-1,3-thiazole-4-carboxamide]: 50 to 500 nM; for `CCc1ccc(NC(=O)NCc2nc(C(=O)NCc3ccccc3OC)cs2)cc1` [Entry 110, 2-[({[(4-ethylphenyl)amino]carbonyl}amino)methyl]-N-{[2-(methyloxy)phenyl]methyl}-1,3-thiazole-4-carboxamide]: 50 to 500 nM; for `CCc1ccc(OCC(=O)NCc2nc(C(=O)NCCc3cccc(Cl)c3)cs2)cc1` [Entry 111, N-[2-(3-chlorophenyl)ethyl]-2-[({[(4-ethylphenyl)oxy]acetyl}amino)methyl]-1,3-thiazole-4-carboxamide]: 50 to 500 nM. Same read-out and setting: the same measure for `COc1ccc(OC)c(CNC(=O)c2csc(CNC(=O)COc3ccc(OC(F)(F)F)cc3)n2)c1` [Entry 112, N-{[2,5-bis(methyloxy)phenyl]methyl}-2-({[({4-[(trifluoromethyl)oxy]phenyl}oxy)acetyl]amino}methyl)-1,3-thiazole-4-carboxamide]: 50 to 500 nM. Same read-out and setting: the same measure for `CCCCCCNC(=O)c1csc(CNC(=O)COc2ccc(OC(F)(F)F)cc2)n1` [Entry 113, N-hexyl-2-({[({4-[(trifluoromethyl)oxy]phenyl}oxy)acetyl]amino}methyl)-1,3-thiazole-4-carboxamide]: 50 to 500 nM. With `CC(C)c1ccc(CC(=O)NCc2nc(C(=O)NCCc3ccccc3F)cs2)cc1` [Entry 114, N-[2-(2-fluorophenyl)ethyl]-2-[({[4-(1-methylethyl)phenyl]acetyl}amino)methyl]-1,3-thiazole-4-carboxamide], the IC50 under setting [1] is 50 to 500 nM. On the same count and under the same terms, in the case of `O=C(COc1ccc(OC(F)(F)F)cc1)NCc1nc(C(=O)NCc2c(F)cccc2F)cs1` [Entry 115, N-[(2,6-difluorophenyl)methyl]-2-({[({4-[(trifluoromethyl)oxy]phenyl}oxy)acetyl]amino}methyl)-1,3-thiazole-4-carboxamide] it was 50 to 500 nM; in that of `O=C(COc1ccc(OC(F)(F)F)cc1)NCc1nc(C(=O)NCc2cccc(F)c2F)cs1` [Entry 116, N-[(2,3-difluorophenyl)methyl]-2-({[({4-[(trifluoromethyl)oxy]phenyl}oxy)acetyl]amino}methyl)-1,3-thiazole-4-carboxamide], 50 to 500 nM.

As to `O=C(Cc1ccc2ccccc2c1)NCc1nc(C(=O)NCCc2cccc(Cl)c2)cs1` [Entry 117, N-[2-(3-chlorophenyl)ethyl]-2-{[(naphthalen-2-ylacetyl)amino]methyl}-1,3-thiazole-4-carboxamide], the IC50 under setting [1] was in the range of 50 to 500 nM.

In the case of `COc1ccccc1CNC(=O)c1csc(CNC(=O)COc2ccc(C(C)C)cc2)n1` [Entry 118, 2-{[({[4-(1-methylethyl)phenyl]oxy}acetyl)amino]methyl}-N-{[2-(methyloxy)phenyl]methyl}-1,3-thiazole-4-carboxamide], under setting [1], the concentration for half-maximal inhibition (IC50) lay in the range of 50 to 500 nM. On to `O=C(COc1ccc(OC(F)(F)F)cc1)NCc1nc(C(=O)NCc2cccc(Cl)c2)cs1` [Entry 119, N-[(3-chlorophenyl)methyl]-2-({[({4-[(trifluoromethyl)oxy]phenyl}oxy)acetyl]amino}methyl)-1,3-thiazole-4-carboxamide], for which the concentration for half-maximal inhibition (IC50) under setting [1] was 50 to 500 nM. As for `COc1ccc(CNC(=O)c2csc(CNC(=O)COc3ccc(OC(F)(F)F)cc3)n2)c(OC)c1` [Entry 120, N-{[2,4-bis(methyloxy)phenyl]methyl}-2-({[({4-[(trifluoromethyl)oxy]phenyl}oxy)acetyl]amino}methyl)-1,3-thiazole-4-carboxamide], the concentration for half-maximal inhibition (IC50) under setting [1] lay within 50 to 500 nM.

Consider `COc1cc(CNC(=O)c2csc(CNC(=O)COc3ccc(OC(F)(F)F)cc3)n2)cc(OC)c1` [Entry 121, N-{[3,5-bis(methyloxy)phenyl]methyl}-2-({[({4-[(trifluoromethyl)oxy]phenyl}oxy)acetyl]amino}methyl)-1,3-thiazole-4-carboxamide], for which the concentration for half-maximal inhibition (IC50) under setting [1] was 50 to 500 nM. In turn, `O=C(COc1ccc(OC(F)(F)F)cc1)NCc1nc(C(=O)NCCOc2ccccc2)cs1` [Entry 122, N-[2-(phenyloxy)ethyl]-2-({[({4-[(trifluoromethyl)oxy]phenyl}oxy)acetyl]amino}methyl)-1,3-thiazole-4-carboxamide] returned an IC50 of 50 to 500 nM.

Turning to `CC(C)(C)OC(=O)NCCCCCNC(=O)c1csc(CNC(=O)COc2ccc(OC(F)(F)F)cc2)n1` [Entry 123, 1,1-dimethylethyl [5-({[2-({[({4-[(trifluoromethyl)oxy]phenyl}oxy)acetyl]amino}methyl)-1,3-thiazol-4-yl]carbonyl}amino)pentyl]carbamate], under setting [1], the IC50 was in the range of 50 to 500 nM. On the same count and under the same terms, the same measure for `CCN(CCNC(=O)c1csc(CNC(=O)COc2ccc(OC(F)(F)F)cc2)n1)c1cccc(C)c1` [Entry 124, N-{2-[ethyl(3-methylphenyl)amino]ethyl}-2-({[({4-[(trifluoromethyl)oxy]phenyl}oxy)acetyl]amino}methyl)-1,3-thiazole-4-carboxamide]: 50 to 500 nM; for `COc1cccc(CNC(=O)c2csc(CNC(=O)COc3ccc(C(C)C)cc3)n2)c1OC` [Entry 125, N-{[2,3-bis(methyloxy)phenyl]methyl}-2-{[({[4-(1-methylethyl)phenyl]oxy}acetyl)amino]methyl}-1,3-thiazole-4-carboxamide]: 50 to 500 nM. As to `O=C(COc1ccc(OC(F)(F)F)cc1)NCc1nc(C(=O)NCc2cc(F)cc(F)c2)cs1` [Entry 126, N-[(3,5-difluorophenyl)methyl]-2-({[({4-[(trifluoromethyl)oxy]phenyl}oxy)acetyl]amino}methyl)-1,3-thiazole-4-carboxamide], under setting [1], the IC50 fell in the range of 50 to 500 nM. The same measure, in the same setting: in the case of `O=C(COc1ccc(OC(F)(F)F)cc1)NCc1nc(C(=O)NCc2cccc(F)c2)cs1` [Entry 127, N-[(3-fluorophenyl)methyl]-2-({[({4-[(trifluoromethyl)oxy]phenyl}oxy)acetyl]amino}methyl)-1,3-thiazole-4-carboxamide] it was 50 to 500 nM; in that of `C[C@@H](CNC(=O)c1coc(CNC(=O)COc2ccc(OC(F)(F)F)cc2)n1)c1ccccc1` [Entry 128, N-[(2R)-2-phenylpropyl]-2-({[({4-[(trifluoromethyl)oxy]phenyl}oxy)acetyl]amino}methyl)-1,3-oxazole-4-carboxamide], 50 to 500 nM; in that of `O=C(NCCc1ccccc1F)c1csc(CNC(=O)c2cccnc2Oc2ccc(Cl)cc2)n1` [Entry 129, 2-[(4-chlorophenyl)oxy]-N-{[4-({[2-(2-fluorophenyl)ethyl]amino}carbonyl)-1,3-thiazol-2-yl]methyl}pyridine-3-carboxamide], 50 to 500 nM. In the case of `CN(C)Cc1ccc(CSCCNC(=O)c2csc(CNC(=O)COc3ccc(OC(F)(F)F)cc3)n2)o1` [Entry 130, N-{2-[({5-[(dimethylamino)methyl]furan-2-yl}methyl)thio]ethyl}-2-({[({4-[(trifluoromethyl)oxy]phenyl}oxy)acetyl]amino}methyl)-1,3-thiazole-4-carboxamide], under setting [1], the IC50 fell in the range of 50 to 500 nM. The same measure, in the same setting: the same measure for `O=C(COc1ccc(OC(F)(F)F)cc1)NC(Cc1ccccc1)c1nc(C(=O)NCCc2cccc(Cl)c2)cs1` (stereo not shown) [Entry 131, N-[2-(3-chlorophenyl)ethyl]-2-(2-phenyl-1-{[({4-[(trifluoromethyl)oxy]phenyl}oxy)acetyl]amino}ethyl)-1,3-thiazole-4-carboxamide]: 50 to 500 nM; for `CCC(CC)CNC(=O)c1csc(CNC(=O)COc2ccc(OC(F)(F)F)cc2)n1` [Entry 132, N-(2-ethylbutyl)-2-({[({4-[(trifluoromethyl)oxy]phenyl}oxy)acetyl]amino}methyl)-1,3-thiazole-4-carboxamide]: 50 to 500 nM; for `Cc1ccsc1CNC(=O)c1csc(CNC(=O)COc2ccc(OC(F)(F)F)cc2)n1` [Entry 133, N-[(3-methyl-2-thienyl)methyl]-2-({[({4-[(trifluoromethyl)oxy]phenyl}oxy)acetyl]amino}methyl)-1,3-thiazole-4-carboxamide]: 50 to 500 nM. Same read-out and setting: in the case of `CCc1ccc(NC(=O)NCc2nc(C(=O)NCc3cccc(OC)c3OC)cs2)cc1` [Entry 134, N-{[2,3-bis(methyloxy)phenyl]methyl}-2-[({[(4-ethylphenyl)amino]carbonyl}amino)methyl]-1,3-thiazole-4-carboxamide] it was 50 to 500 nM.
